Reference: the supplement of paper PMC10307832

Key:
Experiment in all cases: relative viability (nuclei count vs DMSO), 5 days (fraction); higher = more cells survive
[1] = compound: CS(=O)(=O)c1ccc(-c2cnc(N)c(C(=O)Nc3ccccc3)n2)cc1 [VE-821] + O=C(CCCCCCC(=O)Nc1ccccc1)NO [Vorinostat] (partner 1 µM)
In short: (§1)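 Relative viability was taken as the ratio of nuclei in treated wells to nuclei in vehicle wells. Lung cancer cell lines in 1536-well plates received compounds by pin tool one day after seeding, either one drug alone or a fixed anchor-drug dose plus five library-drug doses (not always all listed) in √10 steps. Nuclei were counted on 4× images after 5 days of treatment, and values are medians of duplicate plates.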

[2] = compound: N#CC[C@H](C1CCCC1)n1cc(-c2ncnc3[nH]ccc23)cn1 [Ruxolitinib] + Nc1nc2[nH]cc(CCc3ccc(C(=O)N[C@@H](CCC(=O)O)C(=O)O)cc3)c2c(=O)[nH]1 [Pemetrexed] (partner 0.2 µM)
In short: as §1

[3] = compound: N#CC[C@H](C1CCCC1)n1cc(-c2ncnc3[nH]ccc23)cn1 [Ruxolitinib] + COc1cc2c(Oc3ccc(NC(=O)C4(C(=O)Nc5ccc(F)cc5)CC4)cc3F)ccnc2cc1OCCCN1CCOCC1 [Foretinib] (partner 0.25 µM)
In short: as §1

[4] = compound: N#CC[C@H](C1CCCC1)n1cc(-c2ncnc3[nH]ccc23)cn1 [Ruxolitinib] + CC(C)C[C@H](NC(=O)[C@H](Cc1ccccc1)NC(=O)c1cnccn1)B(O)O [Bortezomib] (partner 0.002 µM)
In short: as §1

Cell Line: UMC-11
- relative viability ([1]; first compound 0.08 µM): 0.335
- relative viability ([1]; first compound 0.253 µM): 0.373
- relative viability ([1]; first compound 0.8 µM): 0.386
- relative viability ([1]; first compound 2.53 µM): 0.297
- relative viability ([1]; first compound 8 µM): 0.202
- relative viability ([2]; first compound 0.08 µM): 0.795
- relative viability ([2]; first compound 0.253 µM): 0.777
- relative viability ([2]; first compound 0.8 µM): 0.757
- relative viability ([2]; first compound 2.53 µM): 0.924
- relative viability ([2]; first compound 8 µM): 0.786
- relative viability ([3]; first compound 0.08 µM): 1.05
- relative viability ([3]; first compound 0.253 µM): 1.07
- relative viability ([3]; first compound 0.8 µM): 1.28
- relative viability ([3]; first compound 2.53 µM): 1.07
- relative viability ([3]; first compound 8 µM): 1.02
- relative viability ([4]; first compound 0.08 µM): 0.696
- relative viability ([4]; first compound 0.253 µM): 0.983
- relative viability ([4]; first compound 0.8 µM): 0.929
- relative viability ([4]; first compound 2.53 µM): 0.715
- relative viability ([4]; first compound 8 µM): 0.706
